Data reported in publication PMC8350397, “GSK137, a potent small-molecule BCL6 inhibitor with in vivo activity, suppresses antibody responses in mice” (The Journal of Biological Chemistry, 2021).

What was measured:
Format in all cases: cell-based
ULA cells = assay: Cell cycle analysis, ULA; conditions: GSK137 0.1-10 μM; for fraction of cells in G1: BI3802 1 μM, 2 or 6 days; for dead or dying cells: day 6, BI3802 1 μM
Method: (§1) Farage, ULA, KARPAS-422, and VAL cells were seeded into 6-well tissue culture dishes in a total volume of 6 mL at densities of 6.25 x10^3, 7.81 x10^3, 6.25 x10^3, and 1.56 x10^3 cells/mL, respectively and incubated overnight at 37 °C and 5% CO2. Cells were then treated with 0.1 µM, 1 µM, or 10 µM GSK137 or 1 µM BI3802 for 2 or 6 days at 37 °C and 5% CO2. Cell cycle analysis was performed using the Click-iT EdU Alexa Fluor 647 Flow Cytometry Assay Kit (Thermo Fisher Scientific, Waltham, MA, USA) following the manufacturer’s instructions, with volumes adjusted for a […] U-bottom plate, and with an approximately 1 hour treatment with 10 μM EdU. After EdU treatment, approximately 2x10^5 cells per well were transferred into a 96-well, non-tissue culture treated U-bottom plate and stained with 6.7µg/ml final FxCycle Violet Stain for 30 minutes incubation at room temperature. Cells were then analyzed on a flow cytometer (BD FACS Canto […] or LSR FortessaTM X-20 (Becton Dickinson, Franklin Lakes, NJ, USA)) with compensation each day using one cell line and data analyzed using FlowJo software (version 10.3). Percentages of cells in each phase of the cell cycle were then averaged across technical replicates.

[1] = biological target: T1, BCL6 in Farage DLBCL cells (Homo sapiens, UniProt P41182); assay: Western blot for BCL6 protein degradation; conditions: 1 μM for 24 h
T1 construct: endogenous in cells; host or cells: Farage DLBCL cells
Method: Cell pellets were lysed in RIPA buffer containing protease/phosphatase inhibitor cocktail and benzonase, protein concentration determined and samples prepared in reducing conditions and 20 µg of protein loaded per lane. Proteins were then transferred onto a nitrocellulose membrane and probed with rabbit BCL6 antibody (Abcam, Cambridge, UK; ab33901) and mouse GAPDH antibody (Abcam; ab9484) at 1:2000 dilution overnight at 4°C. Blots were probed for 1 hour at room temperature with secondary antibodies (goat anti-rabbit LI-COR, 926-32211 and goat anti-mouse LI-COR, 926-68070) at 1:10,000 dilution). Images were obtained on a LI-COR Odyssey CLx Infrared Imaging System using Image Studio software (Version 5.2).

[2] = tested on: Farage, Karpas422 and VAL cells; assay: Cell cycle analysis, Farage, Karpas422, VAL; conditions: 2 or 6 days
Method: as §1

[3] = tested on: BCL6 target genes in Farage cells; assay: Semiquantitative real-time PCR of ten BCL6 target genes; conditions: 72-h treatment
Method: Farage cells were plated at a density of 3000 cells/100 µl in 96-well plates, incubated overnight at 37 °C then treated with a 10-point, 1:3-fold serial dilution of compound at a top concentration of 20 µM for GSK137 or 10 µM BI3802. Cells were returned to the incubator for 3 days prior to harvesting for RNA isolation. RNA was isolated using the TurboCapture 96 Kit (Qiagen, Hilden, Germany; # 72251), cDNA generated using the High Capacity cDNA Reverse Transcription kit (ABI, Foster City, CA, USA; #4374966) both following the manufacturer’s instructions. qPCR was performed on a ViiA7 real-time PCR machine (Life Technologies, Carlsbad, CA, USA) using the Fast TaqMan ΔΔCt method. Quadruplicate readings were measured for each biological replicate sample. Individual TaqMan assays are listed (Table S4). Expression data were analyzed using the Comparative Ct^(2–ΔΔ^Ct) method (42) The Ct values of the treated samples are compared to vehicle treated samples and normalized to GAPDH. Changes are presented as an average RQ (termed “relative expression”). RQ values between 0 and 1 correspond to a downregulation of gene expression, RQ values greater than 1 correspond to upregulation.

Compound	fraction of cells in G1 (ULA cells)	dead or dying cells (ULA cells)	degradation of intracellular BCL6 protein [1]	fraction of cells in G1 [2]	expression changes in a panel of 10 BCL6 target genes [3]
CNC(=O)COc1cc2cc(Nc3nc(N4C[C@H](C)C[C@H](C)C4)ncc3Cl)ccc2n(C)c1=O [BI3802, reference compound]	increased fraction of cells in G1 at day 2	~40%	degraded BCL6	only minor increase in the fraction of cells in G1	dose-dependent changes to six of the ten genes
Cc1ncccc1[C@H]1C[C@@H](c2cccc3nc(N)ccc23)Nc2c(F)cnn21 [GSK137, 5-((5S,7R)-3-Fluoro-7-(2-methylpyridin-3-yl)-4,5,6,7-tetrahydropyrazolo[1,5-a]pyrimidin-5-yl)quinolin-2-amine]	modest dose and time-dependent G1 cell cycle arrest	no increase in dead or dying cells	did not show this activity	only minor increase in the fraction of cells in G1	clear increase only in SOCS2 with some increase in CD69
